In the NIST ThermoML archive (doi:10.1016/j.jct.2016.07.009):
± gives the expanded uncertainty stated by the source.

Tests used:
[1] = Molar enthalpy of transition or fusion; conditions: Crystal; DSC
[2] = Crystal; DTA

## Nc1ccc([N+](=O)[O-])cc1[N+](=O)[O-] [2,4-dinitroaniline]
[1]
  Molar enthalpy of transition or fusion: 5.93 ± 0.227 kcal/mol
[2]
  Normal melting temperature: 178.1 ± 1.1 °C
